# From patent publication US20250319073A1, “COMPOSITIONS AND METHODS FOR THE TREATMENT OF HUNTINGTON’S DISEASE AND HTT PROTEINOPATHIES” (priority 2022, published 2025)
# What was measured:
# Assay type in all cases: in vivo, mouse
# [1] = Body weight of R6/2 mice under chronic treatment
# Description: Study Summary-A total of 46 male R6/2 mice and 15 male wild-type littermate control mice (WT) were used in the study. The mice were genotyped and the R6/2 mice were divided into different treatment groups based on their pre-treatment body weight. The treatment with Compound (Ia) (0.5 or 5 mg/kg; 10 ml/kg, intraperitoneally (i.p.), QD) or Vehicle (10 ml/kg, i.p., QD) was started at 4 weeks of age. Body weights were measured before the treatment onset and continued twice a week until the end of the study. Fine motor kinematic analysis and rotarod test were performed at 10 weeks of age and the open field activity and clasping behavior were measured at 12 weeks of age for all mice. At 8 and 12 weeks of age the glucose uptake was measured by ^18F-FDG PET and the striatal metabolites were measured using MR spectroscopy for 9-10 mice per group. At 13 weeks of age 9-10 mice per group were subjected to tissue sample collection, and the brain and blood samples were collected. The blood samples were used to prepare peripheral blood mononuclear cells (PBMCs) on which the flow cytometry/luminescence analysis was performed for following assays: mitochondrial reactive oxygen species (ROS) (MitoSox), and ATP levels (Cell TiterGlow). […] Body Weights-Body weights were measured at 4 weeks of age (pre-treatment) and twice a week until the end of the study. […]
# R6/2 mice [2] = experiment: Open field test in R6/2 mice; conditions: 12 weeks of age
# Description: Study Summary—A total of 46 male R6/2 mice and 15 male wild-type littermate control mice (WT) were used in the study. The mice were genotyped and the R6/2 mice were divided into different treatment groups based on their pre-treatment body weight. The treatment with Compound (Ia) (0.5 or 5 mg/kg; 10 ml/kg, intraperitoneally (i.p.), QD) or Vehicle (10 ml/kg, i.p., QD) was started at 4 weeks of age. Body weights were measured before the treatment onset and continued twice a week until the end of the study. Fine motor kinematic analysis and rotarod test were performed at 10 weeks of age and the open field activity and clasping behavior were measured at 12 weeks of age for all mice. At 8 and 12 weeks of age the glucose uptake was measured by ^18F-FDG PET and the striatal metabolites were measured using MR spectroscopy for 9-10 mice per group. […] The blood samples were used to prepare peripheral blood mononuclear cells (PBMCs) on which the flow cytometry/luminescence analysis was performed for following assays: mitochondrial reactive oxygen species (ROS) (MitoSox), and ATP levels (Cell TiterGlow). […]
# Open Field Test—At 12 weeks of age all mice were subjected to open field test. […] Mice were placed in the center of the chamber and their behavior was recorded for 30 min in 5-min bins. […]
# R6/2 mice [3] = experiment: Rotarod test in R6/2 mice; conditions: 5 mg/kg i.p. QD, 10 weeks of age, p<0.05, One-way ANOVA
# Description: Study Summary—A total of 46 male R6/2 mice and 15 male wild-type littermate control mice (WT) were used in the study. The mice were genotyped and the R6/2 mice were divided into different treatment groups based on their pre-treatment body weight. The treatment with Compound (Ia) (0.5 or 5 mg/kg; 10 ml/kg, intraperitoneally (i.p.), QD) or Vehicle (10 ml/kg, i.p., QD) was started at 4 weeks of age. Body weights were measured before the treatment onset and continued twice a week until the end of the study. Fine motor kinematic analysis and rotarod test were performed at 10 weeks of age and the open field activity and clasping behavior were measured at 12 weeks of age for all mice. At 8 and 12 weeks of age the glucose uptake was measured by ^18F-FDG PET and the striatal metabolites were measured using MR spectroscopy for 9-10 mice per group. At 13 weeks of age 9-10 mice per group were subjected to tissue sample collection, and the brain and blood samples were collected. The blood samples were used to prepare peripheral blood mononuclear cells (PBMCs) on which the flow cytometry/luminescence analysis was performed for following assays: mitochondrial reactive oxygen species (ROS) (MitoSox), and ATP levels (Cell TiterGlow). […]
# Rotarod Test—At 10 weeks of age all mice were subjected to rotarod test. […] The latency to fall from the rod was recorded.
# R6/2 mice [4] = experiment: 18F-FDG PET brain glucose uptake in R6/2 mice
# Description: Study Summary—A total of 46 male R6/2 mice and 15 male wild-type littermate control mice (WT) were used in the study. The mice were genotyped and the R6/2 mice were divided into different treatment groups based on their pre-treatment body weight. The treatment with Compound (Ia) (0.5 or 5 mg/kg; 10 ml/kg, intraperitoneally (i.p.), QD) or Vehicle (10 ml/kg, i.p., QD) was started at 4 weeks of age. Body weights were measured before the treatment onset and continued twice a week until the end of the study. Fine motor kinematic analysis and rotarod test were performed at 10 weeks of age and the open field activity and clasping behavior were measured at 12 weeks of age for all mice. At 8 and 12 weeks of age the glucose uptake was measured by ^18F-FDG PET and the striatal metabolites were measured using MR spectroscopy for 9-10 mice per group. At 13 weeks of age 9-10 mice per group were subjected to tissue sample collection, and the brain and blood samples were collected. The blood samples were used to prepare peripheral blood mononuclear cells (PBMCs) on which the flow cytometry/luminescence analysis was performed for following assays: mitochondrial reactive oxygen species (ROS) (MitoSox), and ATP levels (Cell TiterGlow).
# ^18F-FDG-PET Analysis—At 8 and 12 weeks of age, 9 mice per group were fasted overnight (water allowed ad libitum) to standardize the blood glucose level. […]
compound,measurement,setting,value
"Cc1cc(O)cc(C)c1C[C@H](NC(=O)[C@H](N)CCCNC(=N)N)C(=O)N[C@@H](CCCCN)c1nc(Cc2ccccc2)no1.Cl.Cl [Compound (Ia), (R)-2-amino-N—((S)-1-(((S)-5-amino-1-(3-benzyl-1,2,4-oxadiazol-5-yl)pentyl)amino)-3-(4-hydroxy-2,6-dimethylphenyl)-1-oxopropan-2-yl)-5-guanidinopentanamide]",body weight compared to vehicle treated R6/2 mice,[1]; 5 mg/kg i.p. QD,non-significantly higher level
same,"body weight, treated R6/2 groups vs vehicle treated R6/2 mice","[1]; 0.5 or 5 mg/kg i.p. QD from 4 to 13 weeks of age, p>0.05, Mixed-effects model (REML)",no significant differences
same,total distance traveled in the open field compared to vehicle treated R6/2 mice,"R6/2 mice [2]; 5 mg/kg i.p. QD, p<0.05, One-way ANOVA",traveled longer total distance
same,"total rearing frequency in the open field, between R6/2 groups","R6/2 mice [2]; 0.5 or 5 mg/kg i.p. QD, p>0.05, One-way ANOVA",no significant differences
same,latency to fall in rotarod compared to vehicle treated R6/2 mice,R6/2 mice [3],increased latency
same,18F-FDG uptake (radioactivity) in olfactory bulb compared to vehicle treated R6/2 mice,"R6/2 mice [4]; 5 mg/kg i.p. QD, 12 weeks of age, p<0.05, Mixed-effects model (REML)",statistically significantly higher radioactivity
same,18F-FDG uptake in various brain areas,"R6/2 mice [4]; i.p. QD, trend, not statistically significant except olfactory bulb",increased
